Literature values in publication PMC7310027, “PET imaging of soluble epoxide hydrolase in non-human primate brain with [^18F]FNDP” (EJNMMI Research, 2020).

Parameters: method as in PMID 27417650
Settings: mouse brain; cited from earlier work

## O=C(NCCC(c1ccccc1)c1ccccc1)c1ccc([18F])nc1 [[^18F]FNDP, N-(3,3-diphenylpropyl)-6-^18F-fluoronicotinamide]
  brain uptake, injected dose per gram of tissue: 5 % ID/g
